Reference: paper PMC6375636, “Monotherapy with a low-dose lipopeptide HIV fusion inhibitor maintains long-term viral suppression in rhesus macaques” (PLoS Pathogens, 2019)
Where two headings read alike, the source gives them in different places. Peptide text beside a SMILES is read from it. * marks the point of attachment. Stearoyl = CCCCCCCCCCCCCCCCCC(=O)*

Tests used:
Type in all cases: cell-based
[1] = system: HIV-1 pseudovirus, primary Env CH119.10; details: Env CH119.10, subtype B/C; mean ± SD of 3 assays in triplicate
Description: (§1) The inhibitory activities of inhibitors against HIV-1 pseudoviruses and replication-competent isolates were measured as described previously. Briefly, HIV-1 pseudoviruses were generated via the cotransfection of HEK293T cells with an Env-expressing plasmid and a backbone plasmid that encodes Env-defective, luciferase-expressing HIV-1 genome (pSG3Δenv). Viral stocks of replication-competent HIV-1 isolates were generated by transfecting viral molecular clones into HEK293T cells. Culture supernatants were harvested at 48 h posttransfection, and 50% tissue culture infectious doses (TCID50) in TZM-bl cells were determined. Inhibitors were prepared in 3-fold dilutions, mixed with 100 TCID50 of a virus, and then incubated for 1 h at room temperature. The mixture was added to TZM-bl cells (10^4/well), and the cells were incubated for additional 48 h at 37°C. Luciferase activity was measured as described above.

[2] = system: HIV-1 pseudovirus, primary Env BJOX002000.03.2; details: Env BJOX002000.03.2, subtype B/C; mean ± SD of 3 assays in triplicate
Description: as §1

[3] = system: HIV-1 pseudovirus, primary Env 398-F1_F6_20; details: Env 398-F1_F6_20, subtype A; mean ± SD of 3 assays in triplicate
Description: as §1

HIV-1 NL4-3 = details: Table 2; NL4-3, subtype B, X4; mean ± SD of 3 assays in triplicate
Description: as §1

[4] = system: HIV-1 pseudovirus, primary Env TRO.11; details: Env TRO.11, subtype B; mean ± SD of 3 assays in triplicate
Description: as §1

[5] = system: HIV-1 pseudovirus, primary Env 92RW020; details: Env 92RW020, subtype A; mean ± SD of 3 assays in triplicate
Description: as §1

HIV-1 WITO.c/2474 = details: Table 2; WITO.c/2474, subtype B, R5; mean ± SD of 3 assays in triplicate
Description: as §1

[6] = system: HIV-1 pseudovirus, primary Env 43–22; details: Env 43–22, subtype B'; mean ± SD of 3 assays in triplicate
Description: as §1

[7] = system: HIV-1 pseudovirus, primary Env B02; details: Env B02, subtype B'; mean ± SD of 3 assays in triplicate
Description: as §1

[8] = system: HIV-1 pseudovirus, primary Env Du156; details: Env Du156, subtype C; mean ± SD of 3 assays in triplicate
Description: as §1

[9] = system: HIV-1 pseudovirus, primary Env GX11.13; details: Env GX11.13, subtype A/E; mean ± SD of 3 assays in triplicate
Description: as §1

[10] = system: HIV-1 pseudovirus, primary Env CE703010217_B6; details: Env CE703010217_B6, subtype C; mean ± SD of 3 assays in triplicate
Description: as §1

HIV-1 R3A = details: Table 2, subtype B, R5X4, mean ± SD of 3 assays in triplicate
Description: as §1

HIV-1 89.6 = details: Table 2; 89.6, subtype B, R5X4; mean ± SD of 3 assays in triplicate
Description: as §1

[11] = system: HIV-1 pseudovirus, primary Env 246_F3_C10_2; details: Env 246_F3_C10_2, subtype A/C; mean ± SD of 3 assays in triplicate
Description: as §1

[12] = system: HIV-1 pseudovirus, primary Env CH120.6; details: Env CH120.6, subtype B/C; mean ± SD of 3 assays in triplicate
Description: as §1

[13] = system: HIV-1 pseudovirus, primary Env SF162; details: Env SF162, subtype B; mean ± SD of 3 assays in triplicate
Description: as §1

[14] = system: HIV-1 pseudovirus, primary Env JRFL; details: subtype B, mean ± SD of 3 assays in triplicate
Description: as §1

[15] = system: HIV-1 pseudovirus, primary Env SC422661.8; details: Env SC422661.8, subtype B; mean ± SD of 3 assays in triplicate
Description: as §1

HIV-1JRCSF = target: HIV-1JRCSF
Description: as §1

[16] = system: HIV-1 pseudovirus, primary Env 92UG037.8; details: Env 92UG037.8, subtype A; mean ± SD of 3 assays in triplicate
Description: as §1

[17] = system: HIV-1 pseudovirus, primary Env CAP210.2.00.E8; details: Env CAP210.2.00.E8, subtype C; mean ± SD of 3 assays in triplicate
Description: as §1

[18] = system: HIV-1 pseudovirus, primary Env CH110; details: Env CH110, subtype B/C; mean ± SD of 3 assays in triplicate
Description: as §1

[19] = system: HIV-1 pseudovirus, primary Env X1632-S2-B10; details: Env X1632-S2-B10, subtype G; mean ± SD of 3 assays in triplicate
Description: as §1

[20] = system: replication-competent HIV-1 isolates; details: mean of the ten isolates of Table 2; read-out: Mean IC50 over the replication-competent isolates
Description: as §1

[21] = system: HIV-1 pseudovirus, primary Env X2278_C2_B6; details: Env X2278_C2_B6, subtype B; mean ± SD of 3 assays in triplicate
Description: as §1

[22] = Fig 1, replication-competent virus, mean ± SD of three assays in triplicate, read-out: Anti-HIV activity (IC50, pM) JRCSF infection
[23] = Table 2, JR-CSF, subtype B, R5, mean ± SD of 3 assays in triplicate, read-out: Mean IC50

Molecule | IC50 [1] [nM] | IC50 [3] [nM] | IC50 [4] [nM] | IC50 [5] [nM] | IC50 (HIV-1 WITO.c/2474) [nM] | IC50 [6] [nM] | IC50 [7] [nM] | IC50 [8] [nM] | IC50 [9] [nM] | IC50 [10] [nM] | IC50 (HIV-1 R3A) [nM] | IC50 (HIV-1 89.6) [nM] | IC50 [11] [nM] | IC50 [12] [nM] | IC50 [13] [nM] | IC50 [14] [nM] | IC50 [15] [nM] | IC50 (HIV-1JRCSF; [22]) [pM] | IC50 (HIV-1JRCSF; [23]) [pM] | IC50 [16] [nM] | further results
CCCCCCCCCCCCCCCCCC(=O)NCCCC[C@H](NC(=O)[C@H](CCC(=O)O)NC(=O)[C@H](CC(C)C)NC(=O)[C@H](CCCCN)NC(=O)[C@H](CCCCN)NC(=O)[C@H](CC(C)C)NC(=O)[C@H](CCC(=O)O)NC(=O)[C@H](CCC(=O)O)NC(=O)[C@H](CCC(=O)O)NC(=O)[C@H](CC(N)=O)NC(=O)[C@H](CCCCN)NC(=O)[C@H](CCCCN)NC(=O)[C@H](CCC(N)=O)NC(=O)[C@H](CCC(N)=O)NC(=O)[C@H](CCC(=O)O)NC(=O)[C@H](CCC(=O)O)NC(=O)[C@H](C)NC(=O)[C@H](CCCCN)NC(=O)[C@H](CCCCN)NC(=O)[C@H](CC(C)C)NC(=O)[C@H](CC(C)C)NC(=O)[C@H](CCC(=O)O)NC(=O)[C@H](CCC(=O)O)NC(=O)[C@@H](NC(=O)[C@H](CCCCN)NC(=O)[C@H](CCC(N)=O)NC(=O)[C@H](CCC(=O)O)NC(=O)[C@H](Cc1c[nH]c2ccccc12)NC(C)=O)[C@@H](C)CC)C(N)=O [LP-80] (Ac-WEQKIEELLKKAEEQQKKNEEELKKLEK(Stearoyl)-NH2) | 0.0047 ± 0.00035 | 0.00149 ± 0.00026 | 0.00392 ± 0.00026 | 0.00974 ± 0.00093 | 0.00338 ± 0.00109 | 0.00324 ± 0.00027 | 0.0089 ± 0.00103 | 0.0011 ± 0.00035 | 0.00485 ± 0.00099 | 0.00572 ± 0.00132 | 0.00567 ± 0.00085 | 0.00527 ± 0.0003 | 0.00405 ± 0.00047 | 0.0106 ± 0.00102 | 0.00312 ± 0.00037 | 0.0104 ± 0.00225 | 0.00255 ± 0.00077 | 2.45 | 4.02 ± 2.63 | 0.00372 ± 0.001 | IC50 [2]: 0.00848 ± 8e-05 nM; IC50 (HIV-1 NL4-3): 0.00245 ± 0.00051 nM; IC50 [17]: 0.0106 ± 0.00256 nM; IC50 [18]: 0.0033 ± 0.00029 nM; IC50 [19]: 0.00556 ± 0.00076 nM; IC50 [20]: 0.00709 nM
CCCCCCCCCCCCCCCCCC(=O)NCCCC[C@H](NC(=O)[C@H](CCC(=O)O)NC(=O)[C@H](CC(C)C)NC(=O)[C@H](CCCCN)NC(=O)[C@H](CCCCN)NC(=O)[C@H](CC(C)C)NC(=O)[C@H](CCC(=O)O)NC(=O)[C@H](CCC(=O)O)NC(=O)[C@H](CCC(=O)O)NC(=O)[C@H](CC(N)=O)NC(=O)[C@H](CCCCN)NC(=O)[C@H](CCCCN)NC(=O)[C@H](CCC(N)=O)NC(=O)[C@H](CCC(N)=O)NC(=O)[C@H](CCC(=O)O)NC(=O)[C@H](CCC(=O)O)NC(=O)[C@H](C)NC(=O)[C@H](CCCCN)NC(=O)[C@H](CCCCN)NC(=O)[C@H](CC(C)C)NC(=O)[C@H](CC(C)C)NC(=O)[C@H](CCC(=O)O)NC(=O)[C@H](CCC(=O)O)NC(=O)[C@@H](NC(C)=O)[C@@H](C)CC)C(N)=O [LP-90] (Ac-IEELLKKAEEQQKKNEEELKKLEK(Stearoyl)-NH2) | 0.0108 ± 0.00236 | 0.00632 ± 0.00046 | 0.00895 ± 0.0023 | 0.0151 ± 0.00062 | 0.00406 ± 0.00167 | 0.0039 ± 0.00133 | 0.0155 ± 0.00368 | 0.00363 ± 0.00067 | 0.0248 ± 0.00159 | 0.0112 ± 0.00083 | 0.00932 ± 0.00121 | 0.0574 ± 0.0109 | 0.00684 ± 0.00047 | 0.0254 ± 0.00162 | 0.00482 ± 0.00091 | 0.0122 ± 0.00083 | 0.0385 ± 0.00705 | 5.4 | 9.33 ± 1.97 | 0.00842 ± 0.00152 | IC50 (HIV-1 NL4-3): 0.0768 ± 0.019 nM; IC50 [21]: 0.00104 ± 0.00022 nM; IC50 [17]: 0.0291 ± 0.00133 nM; IC50 [18]: 0.00785 ± 0.00122 nM; IC50 [19]: 0.0284 ± 0.00411 nM; IC50 [20]: 0.0237 nM
enfuvirtide [Lipopeptide T-20, reference compound] | 11.5 ± 1.75 | 19.4 ± 1.71 | 7.05 ± 1.33 | 3.24 ± 0.232 | 7.81 ± 1.62 | 23.2 ± 0.593 | 10.4 ± 0.529 | 15.7 ± 1.58 | 24.9 ± 2.21 | 41.8 ± 2.22 | 6.73 ± 1.08 | 15.4 ± 5.88 | 36.2 ± 3.7 | 48.1 ± 4.92 | 17.6 ± 1.03 | 9.62 ± 0.502 | 16.1 ± 2.24 | 4460 ± 1400 | 2970 ± 788 | 7.76 ± 1.04 | IC50 [2]: 26.3 ± 2.77 nM; IC50 [21]: 5.66 ± 0.0744 nM; IC50 [17]: 123 ± 4.77 nM; IC50 [18]: 31 ± 2.67 nM; IC50 [19]: 15.6 ± 2.01 nM; IC50 [20]: 15.3 nM
